Results on seven compounds are retold here after US6596724B2, “Oxadiazole and thiadiazole derivatives of dihydropyridine NPY antagonists” (Bristol-Myers Squibb Company, priority 2000, dated 2003).

Series [1] deals with NPY-induced contractions in guinea pig basilar artery. Conditions: cited from earlier work.
The test system of series [2] is NPY-related increases in diastolic blood pressure. Conditions: anesthetized guinea pig model; cited from earlier work.
Series [3] concerns the target T1, I-125 labeled NPY and PYY in human neuroblastoma cells (Homo sapiens, UniProt P25929).
T1 construct: displacing I-125 labeled NPY and PYY in human neuroblastoma cells
T1 sequence (P25929 1-384): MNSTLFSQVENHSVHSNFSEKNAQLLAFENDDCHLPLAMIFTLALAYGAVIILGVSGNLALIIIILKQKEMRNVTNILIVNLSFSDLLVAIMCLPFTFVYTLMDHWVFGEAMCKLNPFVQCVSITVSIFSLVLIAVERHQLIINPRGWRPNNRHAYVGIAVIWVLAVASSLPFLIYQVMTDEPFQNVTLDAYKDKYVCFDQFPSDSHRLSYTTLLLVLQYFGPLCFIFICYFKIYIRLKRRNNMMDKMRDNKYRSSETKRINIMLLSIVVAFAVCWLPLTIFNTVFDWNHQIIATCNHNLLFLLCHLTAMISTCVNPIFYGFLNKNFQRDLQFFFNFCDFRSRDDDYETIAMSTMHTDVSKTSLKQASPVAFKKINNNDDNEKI
The settings on record: cited from earlier work.

The subject of series [4] is NPY-induced pressor response. Conditions: pithed rat; cited from earlier work.
Series [5] has as its target T2, I-125 Bolton-Hunter labeled NPY in human neuroblastoma cells (SK-N-MC) (Homo sapiens, UniProt P25929).
T2 construct: displaces I-125 Bolton-Hunter labeled NPY in human neuroblastoma cells (SK-N-MC); host or cells: SK-N-MC human neuroblastoma cells (endogenous receptor)
T2 sequence (P25929 1-384): T1 sequence (P25929 1-384)
The settings on record: cited from earlier work.

For series [6], the system named is NPY-induced increase in intracellular Ca++ in SK-N-MC cells. Conditions: cited from earlier work.

`COC(=O)C1=C(C)NC(C)=C(C(=O)OC)C1c1cccc(NC(=S)NNC(=O)CN2CCC(c3ccccc3)CC2)c1` [Example 19, 4-[3-[[[2-[(4-Phenyl-1-piperidinyl)acetyl]-hydrazino]-carbonothioyl]amino]phenyl]1,4-dihydro-2,6-dimethyl-3,5-pyridinedicarboxylic acid, dimethyl ester]: the melting point (as a rule, the temperature, or range, at which the solid turns liquid) was 125 to 130 °C. On the same count and under the same terms, as for `COC(=O)C1=C(C)NC(C)=C(C(=O)OC)C1c1cccc(NC(=S)NNC(=O)CN2CCC(c3cccc(OC)c3)CC2)c1` [Example 20, 4-[3-[[[2-[[4-(3-Methoxyphenyl)-1-piperidinyl)acetyl]-hydrazino]-carbonothioyl]amino]phenyl]1,4-dihydro-2,6-dimethyl-3,5-pyridinedicarboxylic acid, dimethyl ester], the figure is 113 to 116 °C; as for `COC(=O)C1=C(C)NC(C)=C(C(=O)OC)C1c1ccc(F)c(NC(=S)NNC(=O)CN2CCC(c3cccc(OC)c3)CC2)c1` [Example 22, 4-[4-Fluoro-3-[[[2-[[4-(3-methoxyphenyl)-1-piperidinyl]acetyl]-hydrazino]-carbonothioyl]amino]phenyl]1,4-dihydro-2,6-dimethyl-3,5-pyridinedicarboxylic acid, dimethyl ester], 114 to 120 °C. As for `O=P(O)(O)OC1[C@H](OP(=O)(O)O)[C@H](O)C(O)[C@H](O)[C@H]1OP(=O)(O)O` (stereo partly drawn) [D-Myo-inositol-1,2,6-triphosphate], the “antagonism of NPY-induced contractions” value in series [1] is listed as “potent but non-competitive antagonist”.

Compound `COC(=O)C1=C(C)NC(C)=C(C(=O)OC)C1c1cccc(NC(=O)NNC(=O)CN2CCC(c3ccccc3)CC2)c1` [Example 18, 4-[3-[[[2-[(4-Phenyl-1-piperidinyl)acetyl]-hydrazino]-carbonyl]amino]phenyl]1,4-dihydro-2,6-dimethyl-3,5-pyridinedicarboxylic acid, dimethyl ester] displayed a melting point of 138 to 143 °C. As to `CN(C)CC1CCC(CN=C(N)c2ccc(C[C@@H](NC(=O)[C@@H](Cc3ccccc3)NS(=O)(=O)c3ccc4ccccc4c3)C(=O)N3CCCC3)cc2)CC1` (stereo partly shown) [SR 120819A], the “antagonism of NPY-related increases in diastolic blood pressure” value in series [2] is “antagonized”. In addition, the “displacement of I-125 labeled NPY and PYY” value in series [3] is recorded as “displacing”. Take `NC(N)=NCCC[C@@H](NC(=O)C(c1ccccc1)c1ccccc1)C(=O)NCc1ccc(O)cc1` [BIBP 3226]: the “antagonism of NPY-induced pressor response” value in series [4] is reported as “antagonizing”. In addition, the “displacement of I-125 Bolton-Hunter labeled NPY” value in series [5] is “displaces”. Moreover, the “antagonism of NPY-induced increase in intracellular Ca++” value in series [6] is on record as “antagonized”.
